The record followed here is patent US6150385A, “1,3,4-thiadiazoles useful for the treatment of CMV infections” (Pharmacia & Upjohn Company, priority 1999, dated 2000).

T1 sequence (P08546 whole entry): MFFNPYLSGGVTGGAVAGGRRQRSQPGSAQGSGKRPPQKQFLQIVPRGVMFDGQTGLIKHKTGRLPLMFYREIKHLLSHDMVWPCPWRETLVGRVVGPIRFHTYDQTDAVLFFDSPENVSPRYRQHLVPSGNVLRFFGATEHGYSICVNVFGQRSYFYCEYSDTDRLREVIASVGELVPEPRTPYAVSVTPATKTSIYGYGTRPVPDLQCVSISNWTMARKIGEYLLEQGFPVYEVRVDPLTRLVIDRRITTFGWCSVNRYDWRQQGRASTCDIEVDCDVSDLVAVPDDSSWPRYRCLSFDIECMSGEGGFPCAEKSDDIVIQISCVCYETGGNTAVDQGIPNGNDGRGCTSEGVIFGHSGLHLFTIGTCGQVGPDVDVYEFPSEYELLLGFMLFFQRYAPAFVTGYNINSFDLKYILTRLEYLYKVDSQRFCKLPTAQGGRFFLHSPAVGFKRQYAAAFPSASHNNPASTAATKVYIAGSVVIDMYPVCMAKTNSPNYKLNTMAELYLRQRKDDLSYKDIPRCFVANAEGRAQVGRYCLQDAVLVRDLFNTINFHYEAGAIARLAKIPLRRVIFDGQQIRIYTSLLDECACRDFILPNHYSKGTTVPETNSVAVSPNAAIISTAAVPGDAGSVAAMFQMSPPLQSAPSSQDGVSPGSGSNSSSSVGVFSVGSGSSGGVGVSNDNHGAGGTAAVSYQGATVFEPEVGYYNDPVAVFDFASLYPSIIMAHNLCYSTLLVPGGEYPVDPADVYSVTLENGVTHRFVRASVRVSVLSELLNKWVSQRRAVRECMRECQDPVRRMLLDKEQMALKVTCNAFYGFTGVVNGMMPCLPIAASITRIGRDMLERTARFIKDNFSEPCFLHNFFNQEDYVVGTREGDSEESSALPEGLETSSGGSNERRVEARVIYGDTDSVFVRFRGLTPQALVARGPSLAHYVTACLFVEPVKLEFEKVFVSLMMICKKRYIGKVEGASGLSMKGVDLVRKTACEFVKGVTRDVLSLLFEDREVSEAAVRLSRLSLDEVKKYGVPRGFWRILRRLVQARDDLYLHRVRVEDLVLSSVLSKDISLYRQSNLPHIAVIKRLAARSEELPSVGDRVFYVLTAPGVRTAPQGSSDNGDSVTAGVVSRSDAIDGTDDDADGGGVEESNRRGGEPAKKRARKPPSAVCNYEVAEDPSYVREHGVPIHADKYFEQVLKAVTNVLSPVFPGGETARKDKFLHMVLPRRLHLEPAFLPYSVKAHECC

This experiment addresses T1, HCMV polymerase (Human cytomegalovirus, UniProt P08546).
T1 construct: made in house; host or cells: SF-9 insect cells infected with recombinant baculovirus
Briefly: HCMV polymerase assay (scintillation proximity assay). The format is biochemical. Conditions: percentage of inhibition at 25 μM concentration in CMV polymerase assay. The essentials:
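Values are percent inhibition at 25 μM, measured by scintillation proximity after capture of biotinylated poly(dA)-oligo(dT) (6 nM) extended with 90 nM 3H-dTTP. Recombinant SF-9-derived enzyme reacted 30 min at 25 or 37 °C in HEPES pH 7.5/KCl/MgCl2/BSA buffer, ±2 mM CHAPS, before EDTA termination.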
For orientation: In a scintillation proximity assay essentially only radioactivity close to the scintillant gives light.
What is called inhibition is the drop in the measured response relative to a control, in per cent. The low end stands for little suppression, the high end for strong suppression. `CC(C)c1cc(C(C)C)c(C(=O)Nc2nnc(NCc3cccnc3)s2)c(C(C)C)c1` [compound 399, 2,4,6-triisopropyl-N-{5-[(3-pyridinylmethyl)amino]-1,3,4-thiadiazol-2-yl}benzamide]: 25 µM produced 25.8% inhibition.
The same measure, in the same setting: for `CCCCCCCC/C=C/CCCCCCCC(=O)Nc1nnc(NCc2ccc(S(N)(=O)=O)cc2)s1` [compound 18, (E)-N-(5-{[4-(aminosulfonyl)benzyl]amino}-1,3,4-thiadiazol-2-yl)-9-octadecenamide] the value was 98.3%; for `O=C(Nc1nnc(NCCN2CCCC2)s1)c1c(Cl)cccc1Cl` [compound 370, 2,6-dichloro-N-(5-{[2-(1-pyrrolidinyl)ethyl]amino}-1,3,4-thiadiazol-2-yl)benzamide], 28.3%; for `O=C(/C=C/c1ccccc1)Nc1nnc(NCCCNC2CCCCC2)s1` [compound 124, (E)-N-(5-{[3-(cyclohexylamino)propyl]amino}-1,3,4-thiadiazol-2-yl)-3-phenyl-2-propenamide], 59.2%.
Same read-out and setting: in the case of `CC(C)c1cc(C(C)C)c(C(=O)Nc2nnc(NCCN3CCCC3)s2)c(C(C)C)c1` [compound 169, 2,4,6-triisopropyl-N-(5-{[2-(1-pyrrolidinyl)ethyl]amino}-1,3,4-thiadiazol-2-yl)benzamide] it was 50.7%.
Take `O=C(/C=C/c1ccccc1)Nc1nnc(NCCNc2ccccc2)s1` [compound 379, (E)-N-{5-[(2-anilinoethyl)amino]-1,3,4-thiadiazol-2-yl}-3-phenyl-2-propenamide]: at 25 µM the inhibition was 27.5%.
Same read-out and setting: in the case of `CCCCCCCC/C=C/CCCCCCCC(=O)Nc1nnc(NCCC#N)s1` [compound 249, (E)-N-{5-[(2-cyanoethyl)amino]-1,3,4-thiadiazol-2-yl}-9-octadecenamide] it was 40.6%; in that of `O=C(Nc1nnc(NCCCCc2ccccc2)s1)c1ccc(C(F)(F)F)cc1` [compound 138, N-{5-[(4-phenylbutyl)amino]-1,3,4-thiadiazol-2-yl}-4-(trifluoromethyl)benzamide], 56.2%; in that of `O=C(Nc1nnc(NCCCN2CCCC2=O)s1)c1cc(F)cc(F)c1` [compound 228, 3,5-difluoro-N-(5-{[3-(2-oxo-1-pyrrolidinyl)propyl]amino}-1,3,4-thiadiazol-2-yl)benzamide], 42.8%.
The same measure, in the same setting: for `CCCCCCCCCCCNc1nnc(NC(=O)c2ccc(C#N)cc2)s1` [compound 65, 4-cyano-N-[5-(undecylamino)-1,3,4-thiadiazol-2-yl]benzamide] the value was 72.2%.
Compound `O=C(Nc1nnc(NCCCCc2ccccc2)s1)c1cccc([N+](=O)[O-])c1` [compound 413, 3-nitro-N-{5-[(4-phenylbutyl)amino]-1,3,4-thiadiazol-2-yl}benzamide] yielded an inhibition at 25 µM of 24.7%.
The compound `CCCCCCCCCCCNc1nnc(NC(=O)c2ccc(Cl)c(Cl)c2)s1` [compound 375, 3,4-dichloro-N-[5-(undecylamino)-1,3,4-thiadiazol-2-yl]benzamide] displayed an inhibition at 25 µM of 27.9%.
Same read-out and setting: in the case of `CCCCCCCC/C=C/CCCCCCCC(=O)Nc1nnc(NCc2cccs2)s1` [compound 42, (E)-N-{5-[(2-thienylmethyl)amino]-1,3,4-thiadiazol-2-yl}-9-octadecenamide] it was 84.6%.
On to `O=C(/C=C/c1ccccc1Cl)Nc1nnc(NCCCNC2CCCCC2)s1` [compound 75, (E)-3-(2-chlorophenyl)-N-(5-{[3-(cyclohexylamino)propyl]amino}-1,3,4-thiadiazol-2-yl)-2-propenamide], for which 25 µM produced 68.8% inhibition.
Same read-out and setting: for `CCCCCCCCCCCNc1nnc(NC(=O)c2ccc3c(c2)C(=O)OC3=O)s1` [compound 4, 1,3-dioxo-N-[5-(undecylamino)-1,3,4-thiadiazol-2-yl]-1,3-dihydro-2-benzofuran-5-carboxamide] the value was 100%; for `O=C(Nc1nnc(NCc2ccc(Cl)c(Cl)c2)s1)c1cccc([N+](=O)[O-])c1` [compound 462, N-{5-[(3,4-dichlorobenzyl)amino]-1,3,4-thiadiazol-2-yl}-3-nitrobenzamide], 20.5%.
Still for that read-out and setting: in the case of `CCOc1ccc2ccccc2c1C(=O)Nc1nnc(NCCC(c2ccccc2)c2ccccc2)s1` [compound 61, N-{5-[(3,3-diphenylpropyl)amino]-1,3,4-thiadiazol-2-yl}-2-ethoxy-1-naphthamide] it was 74.2%; in that of `CCCCCCCCCCCNc1nnc(NC(=O)/C=C/c2ccccc2)s1` [compound 342, (E)-3-phenyl-N-[5-(undecylamino)-1,3,4-thiadiazol-2-yl]-2-propenamide], 31.2%.
Same read-out and setting: in the case of `O=C(Nc1nnc(NCc2ccc(Cl)c(Cl)c2)s1)c1ccc([N+](=O)[O-])o1` [compound 350, N-{5-[(3,4-dichlorobenzyl)amino]-1,3,4-thiadiazol-2-yl}-5-nitro-2-furamide] it was 30.3%; in that of `CC(C)c1cc(C(C)C)c(C(=O)Nc2nnc(NC3CCN(Cc4ccccc4)CC3)s2)c(C(C)C)c1` [compound 265, N-{5-[(1-benzyl-4-piperidinyl)amino]-1,3,4-thiadiazol-2-yl}-2,4,6-triisopropylbenzamide], 39.1%; in that of `CC(C)c1cc(C(C)C)c(C(=O)Nc2nnc(NCCN(C)C)s2)c(C(C)C)c1` [compound 444, N-(5-{[2-(dimethylamino)ethyl]amino}-1,3,4-thiadiazol-2-yl)-2,4,6-triisopropylbenzamide], 21.9%.
On to `CCCCCCCC/C=C/CCCCCCCC(=O)Nc1nnc(NC2CC2)s1` [compound 28, (E)-N-[5-(cyclopropylamino)-1,3,4-thiadiazol-2-yl]-9-octadecenamide], for which at 25 µM the inhibition was 92.6%.
The same measure, in the same setting: in the case of `O=C(CCCCCl)Nc1nnc(NC2CCCCCC2)s1` [compound 316, 5-chloro-N-[5-(cycloheptylamino)-1,3,4-thiadiazol-2-yl]pentanamide] it was 33.6%; in that of `O=C(Nc1nnc(NC2CCc3ccccc32)s1)c1ccc([N+](=O)[O-])o1` (centres unmarked) [compound 404, N-[5-(2,3-dihydro-1H-inden-1-ylamino)-1,3,4-thiadiazol-2-yl]-5-nitro-2-furamide], 25.2%; in that of `Cc1ccc(C(=O)Nc2nnc(NCc3ccc4c(c3)OCO4)s2)cc1` [compound 181, N-{5-[(1,3-benzodioxol-5-ylmethyl)amino]1,3,4-thiadiazol-2-yl}-4-methylbenzamide], 48.3%.
Same read-out and setting: in the case of `O=C(Nc1nnc(NCCc2cccs2)s1)c1c(Cl)cccc1Cl` [compound 92, 2,6-dichloro-N-(5-{[2-(2-thienyl)ethyl]amino}-1,3,4-thiadiazol-2-yl)benzamide] it was 66.1%.
On the same count and under the same terms, in the case of `COc1ccccc1C(=O)Nc1nnc(NCc2ccc3c(c2)OCO3)s1` [compound 414, N-{5-[(1,3-benzodioxol-5-ylmethyl)amino]-1,3,4-thiadiazol-2-yl}-2-methoxybenzamide] it was 24.7%.
In turn, `O=C(Nc1nnc(NCC2CCCCC2)s1)c1ccc2c(c1)C(=O)OC2=O` [compound 3, N-{5-[(cyclohexylmethyl)amino]-1,3,4-thiadiazol-2-yl}-1,3-dioxo-1,3-dihydro-2-benzofuran-5-carboxamide] yielded an inhibition at 25 µM of 100%.
Compound `O=C(Nc1nnc(NCc2ccc(Cl)c(Cl)c2)s1)c1ccc2c(c1)C(=O)OC2=O` [compound 12, N-{5-[(3,4-dichlorobenzyl)amino]-1,3,4-thiadiazol-2-yl}-1,3-dioxo-1,3-dihydro-2-benzofuran-5-carboxamide] showed an inhibition at 25 µM of 99.5%.
Same read-out and setting: in the case of `O=C(Nc1nnc(NCCCn2ccnc2)s1)c1ccc(I)cc1` [compound 324, N-(5-{[3-(1H-imidazol-1-yl)propyl]amino}-1,3,4-thiadiazol-2-yl)-4-iodobenzamide] it was 32.9%; in that of `CCCCCCCCCCCNc1nnc(NC(=O)c2cc(F)cc(F)c2)s1` [compound 175, 3,5-difluoro-N-[5-(undecylamino)-1,3,4-thiadiazol-2-yl]benzamide], 49.4%.
On the same count and under the same terms, in the case of `Cc1ccc(C(=O)Nc2nnc(NCCc3ccccc3)s2)cc1` [compound 359, 4-methyl-N-[5-(phenethylamino)-1,3,4-thiadiazol-2-yl]benzamide] it was 29.1%; in that of `O=C(Nc1nnc(NC2CCN(Cc3ccccc3)CC2)s1)c1ccc(I)cc1` [compound 367, N-{5-[(1-benzyl-4-piperidinyl)amino]-1,3,4-thiadiazol-2-yl}-4-iodobenzamide], 28.6%.
`CC(C)c1cc(C(C)C)c(C(=O)Nc2nnc(NCCc3c[nH]cn3)s2)c(C(C)C)c1` [compound 317, N-(5-{[2-(1H-imidazol-4-yl)ethyl]amino}-1,3,4-thiadiazol-2-yl)-2,4,6-triisopropylbenzamide] returned an inhibition at 25 µM of 33.6%.
Same read-out and setting: in the case of `O=C(Nc1nnc(NCCCN2CCCC2=O)s1)c1ccc(F)cc1F` [compound 427, 2,4-difluoro-N-(5-{[3-(2-oxo-1-pyrrolidinyl)propyl]amino}-1,3,4-thiadiazol-2-yl)benzamide] it was 23.4%; in that of `CC(=O)NCCNc1nnc(NC(=O)c2ccc3c(c2)C(=O)OC3=O)s1` [compound 258, N-(5-{[2-(acetylamino)ethyl]amino}-1,3,4-thiadiazol-2-yl)-1,3-dioxo-1,3-dihydro-2-benzofuran-5-carboxamide], 39.7%.
In the case of `O=C(Nc1nnc(NCCCNC2CCCCC2)s1)c1ccc(S(=O)(=O)F)cc1` [compound 189, 4-{[(5-{[3-(cyclohexylamino)propyl]amino}-1,3,4-thiadiazol-2-yl)amino]carbonyl}benzenesulfonyl fluoride], the “% Inhib” value was 47.1%.
In turn, `O=C(Nc1nnc(NCCCNC2CCCCC2)s1)c1c(Cl)cccc1Cl` [compound 37, 2,6-dichloro-N-(5-{[3-(cyclohexylamino)propyl]amino}-1,3,4-thiadiazol-2-yl)benzamide] had an inhibition at 25 µM of 87.4%.
